Source: the NIST ThermoML archive (doi:10.1016/j.jct.2017.06.001)
± gives the expanded uncertainty stated by the source.

Assay: xn = mol fraction of the nth substance listed
Details: 100 kPa, Liquid; for speed of sound: Frequency=5 MHz, Pulse-echo method; for mass density: Vibrating tube method

OCCCCCO [1,5-pentanediol] + O
Details | mass density [kg/m3] | speed of sound [m/s]
298.15 K, x1 = 0.005 | 996.7 ± 0.53 | –
298.15 K, x1 = 0.0101 | 996.7 ± 1 | –
298.15 K, x1 = 0.0196 | 997.13 ± 1 | –
298.15 K, x1 = 0.0251 | 997.61 ± 1 | –
298.15 K, x1 = 0.0304 | 998.17 ± 1 | –
298.15 K, x1 = 0.05 | 999.75 ± 1 | –
298.15 K, x1 = 0.0769 | 1001.11 ± 1 | –
298.15 K, x1 = 0.1002 | 1002.09 ± 1.1 | –
298.15 K, x1 = 0.1282 | – | 1678.7 ± 1.2
298.15 K, x1 = 0.1298 | – | 1679.1 ± 1.2
298.15 K, x1 = 0.1332 | – | 1680 ± 1.2
298.15 K, x1 = 0.1353 | – | 1680.5 ± 1.2
298.15 K, x1 = 0.1358 | – | 1680.6 ± 1.2
298.15 K, x1 = 0.1417 | – | 1681.8 ± 1.3
298.15 K, x1 = 0.1438 | 1002.72 ± 1.1 | –
298.15 K, x1 = 0.1444 | – | 1682.3 ± 1.3
298.15 K, x1 = 0.1473 | – | 1682.8 ± 1.3
298.15 K, x1 = 0.1535 | – | 1683.7 ± 1.3
298.15 K, x1 = 0.1536 | – | 1683.7 ± 1.3
298.15 K, x1 = 0.1588 | – | 1684.3 ± 1.3
298.15 K, x1 = 0.1603 | – | 1684.5 ± 1.3
298.15 K, x1 = 0.1616 | – | 1684.6 ± 1.3
298.15 K, x1 = 0.1649 | – | 1684.9 ± 1.3
298.15 K, x1 = 0.1676 | – | 1685.1 ± 1.3
298.15 K, x1 = 0.1771 | – | 1685.7 ± 1.3
298.15 K, x1 = 0.1845 | 1002.56 ± 1.1 | –
298.15 K, x1 = 0.1944 | – | 1686.1 ± 1.3
298.15 K, x1 = 0.2114 | – | 1686 ± 1.3
298.15 K, x1 = 0.2309 | – | 1685.4 ± 1.3
298.15 K, x1 = 0.247 | – | 1684.6 ± 1.3
298.15 K, x1 = 0.2503 | 1001.62 ± 1.2 | –
298.15 K, x1 = 0.2649 | – | 1683.5 ± 1.4
298.15 K, x1 = 0.2807 | – | 1682.5 ± 1.4
298.15 K, x1 = 0.2987 | – | 1681.1 ± 1.4
298.15 K, x1 = 0.3 | 1000.58 ± 1.2 | –
298.15 K, x1 = 0.3178 | – | 1679.6 ± 1.4
298.15 K, x1 = 0.3343 | 999.9 ± 1.3 | –
298.15 K, x1 = 0.3356 | – | 1678 ± 1.4
298.15 K, x1 = 0.3619 | – | 1675.6 ± 1.4
298.15 K, x1 = 0.38 | – | 1673.8 ± 1.5
298.15 K, x1 = 0.4015 | – | 1671.6 ± 1.5
298.15 K, x1 = 0.4171 | 998.14 ± 1.4 | –
298.15 K, x1 = 0.4247 | – | 1669.1 ± 1.5
298.15 K, x1 = 0.4487 | – | 1666.4 ± 1.5
298.15 K, x1 = 0.454 | 997.25 ± 1.4 | –
298.15 K, x1 = 0.4652 | – | 1664.4 ± 1.6
298.15 K, x1 = 0.4828 | – | 1662.2 ± 1.6
298.15 K, x1 = 0.4985 | – | 1660.2 ± 1.6
298.15 K, x1 = 0.5003 | 996.2 ± 1.5 | –
298.15 K, x1 = 0.5142 | – | 1658.1 ± 1.6
298.15 K, x1 = 0.5304 | – | 1656 ± 1.6
298.15 K, x1 = 0.5362 | 995.4 ± 1.5 | –
298.15 K, x1 = 0.5465 | – | 1653.8 ± 1.7
298.15 K, x1 = 0.5643 | – | 1651.3 ± 1.7
298.15 K, x1 = 0.5819 | – | 1648.8 ± 1.7
298.15 K, x1 = 0.5991 | – | 1646.4 ± 1.7
298.15 K, x1 = 0.6177 | 993.8 ± 1.7 | –
298.15 K, x1 = 0.6187 | – | 1643.6 ± 1.8
298.15 K, x1 = 0.6363 | – | 1641.1 ± 1.8
298.15 K, x1 = 0.6478 | 993.2 ± 1.7 | –
298.15 K, x1 = 0.6547 | – | 1638.5 ± 1.8
298.15 K, x1 = 0.6726 | – | 1635.9 ± 1.8
298.15 K, x1 = 0.6904 | – | 1633.4 ± 1.9
298.15 K, x1 = 0.7025 | 992.2 ± 1.8 | –
298.15 K, x1 = 0.7097 | – | 1630.7 ± 1.9
298.15 K, x1 = 0.729 | – | 1628 ± 1.9
298.15 K, x1 = 0.7504 | 991.4 ± 1.9 | –
298.15 K, x1 = 0.7505 | – | 1625.1 ± 1.9
298.15 K, x1 = 0.7712 | – | 1622.3 ± 2
298.15 K, x1 = 0.7919 | – | 1619.6 ± 2
298.15 K, x1 = 0.7927 | 990.6 ± 2 | –
298.15 K, x1 = 0.8118 | – | 1617 ± 2
298.15 K, x1 = 0.8321 | – | 1614.5 ± 2
298.15 K, x1 = 0.8523 | – | 1612 ± 2.1
298.15 K, x1 = 0.8605 | 989.3 ± 2.1 | –
298.15 K, x1 = 0.8751 | – | 1609.2 ± 2.1
298.15 K, x1 = 0.8978 | – | 1606.4 ± 2.1
298.15 K, x1 = 0.9004 | 988.6 ± 2.2 | –
298.15 K, x1 = 0.9201 | – | 1603.7 ± 2.2
298.15 K, x1 = 0.9427 | – | 1600.9 ± 2.2
298.15 K, x1 = 0.9496 | 987.5 ± 2.3 | –
298.15 K, x1 = 0.9712 | – | 1597.4 ± 2.3
298.15 K, x1 = 0.9832 | – | 1595.9 ± 2.3
298.15 K, x1 = 0.993 | – | 1594.7 ± 2.3
298.15 K, x1 = 1 | 986.5 ± 2.1 | 1593.8 ± 2.3
303.15 K, x1 = 0.0002 | – | 1510.1 ± 1.1
303.15 K, x1 = 0.0005 | – | 1510.9 ± 1.1
303.15 K, x1 = 0.0007 | – | 1511.8 ± 1.1
303.15 K, x1 = 0.0011 | – | 1513 ± 1.1
303.15 K, x1 = 0.0014 | – | 1514.2 ± 1.1
303.15 K, x1 = 0.0019 | – | 1515.5 ± 1.1
303.15 K, x1 = 0.0023 | – | 1517.1 ± 1.1
303.15 K, x1 = 0.0028 | – | 1518.5 ± 1.1
303.15 K, x1 = 0.0033 | – | 1520.2 ± 1.1
303.15 K, x1 = 0.0038 | – | 1521.9 ± 1.2
303.15 K, x1 = 0.0045 | – | 1524.1 ± 1.2
303.15 K, x1 = 0.0052 | – | 1526.2 ± 1.2
303.15 K, x1 = 0.006 | – | 1528.5 ± 1.2
303.15 K, x1 = 0.0067 | – | 1530.9 ± 1.2
303.15 K, x1 = 0.0076 | – | 1533.3 ± 1.2
303.15 K, x1 = 0.0084 | – | 1535.8 ± 1.2
303.15 K, x1 = 0.0093 | – | 1538.3 ± 1.2
303.15 K, x1 = 0.0102 | – | 1540.9 ± 1.2
303.15 K, x1 = 0.0111 | – | 1543.4 ± 1.2
303.15 K, x1 = 0.0121 | – | 1546.1 ± 1.2
303.15 K, x1 = 0.0131 | – | 1549 ± 1.2
303.15 K, x1 = 0.0143 | – | 1552 ± 1.2
303.15 K, x1 = 0.0152 | – | 1554.6 ± 1.2
303.15 K, x1 = 0.0164 | – | 1557.6 ± 1.2
303.15 K, x1 = 0.0176 | – | 1560.4 ± 1.2
303.15 K, x1 = 0.0187 | – | 1563.2 ± 1.2
303.15 K, x1 = 0.0198 | – | 1565.8 ± 1.2
303.15 K, x1 = 0.0211 | – | 1568.8 ± 1.2
303.15 K, x1 = 0.0224 | – | 1571.8 ± 1.2
303.15 K, x1 = 0.0238 | – | 1575 ± 1.2
303.15 K, x1 = 0.025 | – | 1577.6 ± 1.2
303.15 K, x1 = 0.0263 | – | 1580.4 ± 1.2
303.15 K, x1 = 0.0274 | – | 1582.8 ± 1.2
303.15 K, x1 = 0.0286 | – | 1585.1 ± 1.2
303.15 K, x1 = 0.0298 | – | 1587.5 ± 1.2
303.15 K, x1 = 0.0311 | – | 1590.1 ± 1.2
303.15 K, x1 = 0.0323 | – | 1592.4 ± 1.2
303.15 K, x1 = 0.0336 | – | 1594.7 ± 1.2
303.15 K, x1 = 0.035 | – | 1597.4 ± 1.2
303.15 K, x1 = 0.0363 | – | 1599.7 ± 1.2
303.15 K, x1 = 0.0378 | – | 1602.2 ± 1.2
303.15 K, x1 = 0.0396 | – | 1605.2 ± 1.2
303.15 K, x1 = 0.0417 | – | 1608.5 ± 1.2
303.15 K, x1 = 0.0431 | – | 1610.7 ± 1.2
303.15 K, x1 = 0.0455 | – | 1614.4 ± 1.2
303.15 K, x1 = 0.0471 | – | 1616.7 ± 1.2
303.15 K, x1 = 0.0489 | – | 1619.2 ± 1.2
303.15 K, x1 = 0.0504 | – | 1621.1 ± 1.2
303.15 K, x1 = 0.0519 | – | 1623.1 ± 1.2
303.15 K, x1 = 0.0541 | – | 1625.9 ± 1.2
303.15 K, x1 = 0.0565 | – | 1628.8 ± 1.2
303.15 K, x1 = 0.0594 | – | 1632.1 ± 1.2
303.15 K, x1 = 0.0615 | – | 1634.4 ± 1.2
303.15 K, x1 = 0.0646 | – | 1637.6 ± 1.2
303.15 K, x1 = 0.0673 | – | 1640.2 ± 1.2
303.15 K, x1 = 0.0706 | – | 1643.2 ± 1.2
303.15 K, x1 = 0.0746 | – | 1646.6 ± 1.2
303.15 K, x1 = 0.0782 | – | 1649.5 ± 1.2
303.15 K, x1 = 0.0815 | – | 1651.8 ± 1.2
303.15 K, x1 = 0.0842 | – | 1653.7 ± 1.2
303.15 K, x1 = 0.0876 | – | 1655.8 ± 1.2
303.15 K, x1 = 0.0913 | – | 1658 ± 1.2
303.15 K, x1 = 0.0937 | – | 1659.3 ± 1.2
303.15 K, x1 = 0.0967 | – | 1660.8 ± 1.2
303.15 K, x1 = 0.0996 | – | 1662.2 ± 1.2
303.15 K, x1 = 0.1022 | – | 1663.4 ± 1.2
303.15 K, x1 = 0.1053 | – | 1664.7 ± 1.2
303.15 K, x1 = 0.1078 | – | 1665.7 ± 1.2
303.15 K, x1 = 0.1089 | – | 1666.1 ± 1.2
303.15 K, x1 = 0.1114 | – | 1667 ± 1.2
303.15 K, x1 = 0.1126 | – | 1667.4 ± 1.2
303.15 K, x1 = 0.1153 | – | 1668.3 ± 1.2
